From patent EP0449699A2, “Pyrazole derivatives as angiotensin II-receptor antagonists, process for their preparation and pharmaceutical compositions containing them” (LABORATOIRES UPSA, priority 1990, dated 1991)

Tested on: récepteurs surrénaliens de l'angiotensine II
Experiment: Displacement of radioligand [125I]-SIAII specifically bound to adrenal angiotensin II receptors (rat adrenal homogenate)
Format: binding
Details: 60 min, 25°C
Description: L'affinité des produits des exemples pour les récepteurs de l'angiotensine II est évaluée par technique de déplacement d'un radioligand spécifiquement fixé sur les récepteurs surrénaliens de l'angiotensine Il, chez le rat.
Une aliquote d'un homogénat de surrénales de rat incube en présence d'une concentration unique de [^125I]-SIAII (Sar^1, Tyr^4, Ile^8 - angiotensine II), antagoniste des récepteurs de l'angiotensine II, et de deux concentrations d'agents compétiteurs (10^-5 M, 10-^7 M) durant 60 min à 25°C.
La réaction est achevée par ajout de tampon, puis rapide filtration à travers des filtres de papier de verre. La liaison non spécifique est déterminée en présence d'angiotensine Il.
Les résultats sont exprimés, pour les concentrations testées, en pourcentage de déplacement du radioligand spécifiquement fixé sur les récepteurs surrénaliens de l'angiotensine Il.

% de déplacement du ligand marqué (competitor 1E-5 M, 10 µM) [%] | % de déplacement du ligand marqué (competitor 1E-7 M, 0.1 µM) [%] | Compound
83 | 62 | CCCc1nn(C)c(COC)c1Cc1ccc(NC(=O)c2ccccc2S(=O)(=O)O)cc1 [Exemple 107, Acide [(Méthyl-1 n-propyl-3 méthoxy méthyl-5 pyrazol-yl-4)méthylphényl-yl-4] amino carbonyl-2 benzène sulfonlque]
63 | 5 | CCCc1nn(C)c(OCCO)c1Cc1ccc(-c2ccccc2C(=O)O)cc1 [Exemple 137, [Méthyl-1 n-Propyl-3 (carboxy-2'blphényl-yl-4)méthyl-4 pyrazol-yl-5]oxy-2 éthanol]
92 | 63 | CCCc1nn(C)c(OCC(=O)N2CCN(c3ccccc3OC)CC2)c1Cc1ccc(NC(=O)c2ccccc2S(=O)(=O)O)cc1 [Exemple 66, (Méthoxy-2 phényl)-1 [[méthyl-1 n-propyl-3 [(sulfo-2 benzoyl amino)-4 benzyl]-4 pyrazol-yl-5]oxyacétyl]-4 pipérazine]
58 | 9 | CCCCc1nn(C)c(OCC(=O)O)c1Cc1ccc(-c2ccccc2C(=O)O)cc1 [Exemple 37, Acide [Méthyl-1 n-butyl-3 (carboxy-2' biphényl-yl-4)méthyl-4 pyrazol-yl-5] oxyacétique]
85 | 2 | CCCc1nn(CC(=O)OCC)c(O)c1Cc1ccc(NC(=O)c2c(Cl)ccc(Cl)c2C(=O)O)cc1 [Exemple 41, Acide [[éthoxy carbonyl méthyl-1 n-propyl-3 hydroxy-5 pyrazol-yl-4]méthylphényl-yl-4] amino carbonyl-2 dichloro-3,6 benzoïque]
80 | 58 | CCCCc1nn(C)c(OCC(=O)N2CCOCC2)c1Cc1ccc(NC(=O)c2ccccc2S(=O)(=O)O)cc1 [Exemple 48, N-[[Méthyl-1 n-butyl-3 [(sulfo-2 benzoyl amino)-4 benzyl]-4 pyrazol-yl-5]oxyacétyl] morpholine]
93 | 60 | CCCc1nn(C)c(OCC(=O)OC)c1Cc1ccc(NC(=O)c2c(Cl)ccc(Cl)c2C(=O)O)cc1 [Exemple 31, [Méthyl-1 n-propyl-3 ((carboxy-2 dlchloro-3,6-benzoyl amino)-4 benzyl)-4 pyrazol-yl-5] oxyacétatede méthyle]
64 | 40 | CCCCc1nn(C)c(OCC(=O)OCC)c1Cc1ccc(-c2ccccc2-c2nn[nH]n2)cc1 [Exemple 90, [Méthyl-1 n-Butyl-3 [(tétrazolyl-5)-2'blphényl-yl-4]méthyl-4 pyrazol-yl-5] oxy acétate d'éthyle]
83 | 0 | CCCCc1nn(C)c(O)c1Cc1ccc(NC(=O)c2c(Cl)ccc(Cl)c2C(=O)O)cc1 [Exemple 40, Acide [(Méthyl-1 n-butyl-3 hydroxy-5 pyrazolyl-4]méthylphényl-yl-4] amino carbonyl-2 dichloro-3,6 benzoïque]
75 | 70 | CCCc1nn(CC(F)(F)F)c(OCCO)c1Cc1ccc(-c2ccccc2-c2nn[nH]n2)cc1 [Exemple 92, [(trifluoro-2,2,2 éthyl)-1 n-Propyl-3 [(tétrazolyl-5)-2'biphényl-yl-4]méthyl-4 pyrazol-yl-5] oxy-2 éthanol]
66 | 58 | CCCc1nn(CC(F)(F)F)c(O)c1Cc1ccc(-c2ccccc2-c2nnn[nH]2)cc1 [Exemple 74, (Trifluoro-2,2,2 éthyl)-1 n-Propyl-3 hydroxy-5 [(tétrazolyl-5)-2' biphényl-yl-4] méthyl-4 pyrazole]
60 | 38 | CCCc1nn(C)c(OCCO)c1Cc1ccc(-c2ccccc2-c2nn[nH]n2)cc1 [Exemple 88, [Méthyl-1 n-Propyl-3 [(tétrazolyl-5)-2'biphényl-yl-4]méthyl-4 pyrazol-yl-5]oxy-2 éthanol]
80 | 40 | CCCc1nn(C)c(OCC(=O)OCC)c1Cc1ccc(NC(=O)c2ccccc2C(=O)O)cc1 [Exemple 29, [Méthyl-1 n-propyl-3 ((carboxy-2 benzoyl amino)-4 benzyl)-4 pyrazol-yl-5] oxyacétate d'éthyle]
53 | 0 | CCCc1nn(C)c(OCCO)c1Cc1ccc(-c2ccsc2C(=O)O)cc1 [Exemple 145, [Méthyl-1 n-Propyl-3 [(carboxy-2 thiényl-3)-4 benzyl]-4 pyrazol-yl-5] oxy-2 éthanol]
70 | 54 | CCCCc1nn(CC(F)(F)F)c(COC)c1Cc1ccc(-c2ccccc2-c2nnn[nH]2)cc1 [Exemple 119, (Trifluoro-2,2,2 éthyl)-1 n-butyl-3 [(tétrazolyl-5)-2' biphényl-yl-4] méthyl-4 méthoxy méthyl-5 pyrazole]
80 | 57 | CCCc1nn(C)c(CO)c1Cc1ccc(NC(=O)c2ccccc2S(=O)(=O)O)cc1 [Exemple 115, Acide [(méthyl-1 n-propyl-3 hydroxy méthyl-5 pyrazol-yl-4)méthylphényl-yl-4] amino carbonyl-2 benzène sulfonique]
94 | 26 | CCCc1nn(CC(F)(F)F)c(OCC(=O)OC)c1Cc1ccc(NC(=O)c2ccccc2C(=O)O)cc1 [Exemple 33, [(trifluoro-2,2,2 éthyl)-1 n-propyl-3 ((carboxy-2 benzoyl amino)-4 benzyl)-4 pyrazol-yl-5] oxyacétatede méthyle]
83 | 60 | CCCCc1nn(C)c(OCCO)c1Cc1ccc(NC(=O)c2ccccc2S(=O)(=O)O)cc1 [Exemple 51, Acide [[Méthyl-1 n-butyl-3 (hydroxy-2 éthoxy)-5 pyrazol-yl-4]méthylphényl-yl-4] amino carbonyl-2 benzène sulfonique]
86 | 19 | CCCc1n[nH]c(COC)c1Cc1ccc(NC(=O)c2ccccc2S(=O)(=O)O)cc1 [Exemple 108, Acide [(n-propyl-3 méthoxy méthyl-5 pyrazol-yl-4)méthylphényl-yl-4] amino carbonyl-2 benzène sulfonique]
65 | 34 | CCCc1nn(C)c(OCC(=O)OC)c1Cc1ccc(-c2ccccc2NS(=O)(=O)C(F)(F)F)cc1 [Exemple 135, [Méthyl-1 n-Propyl-3 (trifluoro méthyl sulfonyl amlmo-2'blphényl-yl-4)méthyl-4 pyrazol-yl-5] oxy acétatede méthyle]
91 | 64 | CCCc1nn(CC(F)(F)F)c(OCCO)c1Cc1ccc(NC(=O)c2ccccc2S(=O)(=O)O)cc1 [Exemple 63, Acide [[(trffiuoro-2,2,2 éthyl)-1 n-Propyl-3 (hydroxy-2 éthoxy)-5 pyrazol-yl-4]méthyl-4 phényl-yl-4] amino carbonyl-2 benzène sulfonique]
92 | 39 | CCCCc1nn(C)c(OCC(=O)OCC)c1Cc1ccc(NC(=O)c2ccccc2C(=O)O)cc1 [Exemple 27, [Méthyl-1 n-butyl-3 ((carboxy-2 benzoyl amino)-4 benzyl)-4 pyrazol-yl-5] oxyacétate d'éthyle]

Compound | % de déplacement du ligand marqué (competitor 1E-5 M, 10 µM) [%] | % de déplacement du ligand marqué (competitor 1E-7 M, 0.1 µM) [%]
CCCCc1nn(CC(F)(F)F)c(OC(=O)N(C)C)c1Cc1ccc(-c2ccccc2-c2nn[nH]n2)cc1 [Exemple 80, (Trifluoro-2,2,2 éthyl)-1 n-Butyl-3 [(tétrazolyl-5)-2'biphényl-yl-4] méthyl-4 (N,N-diméthyl carbamoyl) oxy-5 pyrazole] | 69 | 48
CCCc1nn(C)c(OC(=O)N(C)C)c1Cc1ccc(-c2ccccc2-c2nn[nH]n2)cc1 [Exemple 86, Méthyl-1 n-Propyl-3 [(tétrazolyl-5)-2' biphényl-yl-4] méthyl-4 (N,N-diméthyl carbamoyl) oxy-5 pyrazole] | 58 | 41
CCCc1nn(C)c(OC(=O)N(CC)CC)c1Cc1ccc(NC(=O)c2ccccc2S(=O)(=O)O)cc1 [Exemple 57, Acide [[Méthyl-1 n-Propyl-3 (N,N-diéthyl carbamoyl)oxy-5 pyrazol-yl-4]méthylphényl-yl-4] amino carbonyl-2 benzène sulfonique] | 80 | 60
CCCc1nn(C)c(OC(=O)N(C)C)c1Cc1ccc(NC(=O)c2ccccc2S(=O)(=O)O)cc1 [Exemple 54, Acide [[Méthyl-1 n-propyl-3 (N,N-diméthyl carbamoyl)oxy-5 pyrazol-yl-4]méthylphényl-yl-4] aminocarbonyl-2 benzène sulfonique] | 77 | 62
CCCc1nn(CC(F)(F)F)c(OC(=O)N(C)C)c1Cc1ccc(NC(=O)c2ccccc2S(=O)(=O)O)cc1 [Exemple 60, Acide [[(trifluoro-2,2,2 éthyl)-1 n-Propyl-3 (N,N-diméthyl carbamoyl)oxy-5 pyrazol-yl-4]méthylphényl-yl-4] amino carbonyl-2 benzène sulfonique] | 84 | 49
